Where “and” joins values, the source holds several entries; their conditions need not be identical. Equal entries are not always repeated.
Assays:
[1] = target: exonuclease-inactivated E. faecium PolC (Exo^null, PolC^D431A+E433A) (Enterococcus faecium, UniProt A0A9X4B319, D429A/E431A); assay: Real-time DNA primer extension assay; type: biochemical; details: for IC50: n = 3, ± SEM
Protocol: Polymerase activity was monitored in real-time[31],[32] with a 42-nt long 5’ carboxyfluorescein-labelled DNA oligonucleotide template strand (DNASP8_42) annealed to a 30-nt primer oligonucleotide (oMU014). Polymerase activity in this assay is monitored by measuring fluorescence quenching of the labelled DNA template as a result of primer extension by PolC (for details see Supplementary Fig. 1b, c). Both primers were HPLC purified. Primer extension assays were performed in Reaction Buffer (see Gel-based polymerase and exonuclease assays) supplemented with 0.5 mg/mL BSA, 0.05% Tween20 and 25 uM of each dNTP (SRB) in 384-well Black Round Bottom plates (Corning 4514). The polymerase was diluted in the SRB and incubated for at least 5 min in the presence of inhibitor or solvent, with a final solvent concentration of 1%. The reaction was initiated by the addition of an equal volume of DNA substrate in SRB as described below. Fluorescence emission data was collected with a BMG Labtech PHERAstar FSX reader for 30 min at room temperature.
Compounds were dispensed with an Echo acoustic liquid handler (Beckman Coulter). All compounds were dissolved to 1 mM and 10 mM stocks in 100% DMSO and transferred to Echo LDV or PP source plates (Labcyte, Inc., CA), then dispensed to 384-well plates with a Labcyte Echo550 or Echo650 acoustic dispenser at volumes of 2.5 to 100 nL per well. […] A Mantis microfluidic liquid dispenser (Formulatrix) was used to dispense 5 µL polymerase and 5 µL substrate DNA (individually diluted in SRB) per well. […] The final concentration of DNA was 70 nM.
Data were analysed and standard error of the means (SEM) determined in Prism 8.4.2 and 10.2.3 (GraphPad). Raw time-course polymerase activity was plotted against time, with SEM of triplicates determined. The rate of activity (represented by signal quenching) was determined during the first 8 min (linear stage) by calculating the slope of fluorescence intensity change (converted to a positive value) over time (in seconds). The slopes were then normalized to percentage activity (%); per ‘replicate range’, 100% activity was defined as polymerase activity in the absence of inhibitor (polymerase control), and 0% activity was determined in the absence of polymerase (DNA signal; negative control). The SEM was determined between ‘replicate ranges’. The IC50 was determined using the dose-response (inhibition) nonlinear regression ‘[Inhibitor] vs. response (three parameters)’ without constraints.

E. faecium DnaE = target: T1, E. faecium DnaE (Enterococcus faecium, UniProt Q3XYP9); assay: Real-time DNA primer extension assay; type: biochemical; details: for rate of activity (slope of fluorescence intensity change over time): Fig. 1f source data, E. faecium DnaE; for IC50: Fig. 1f, n = 3, ± SEM
T1 sequence (Q3XYP9 1-1104): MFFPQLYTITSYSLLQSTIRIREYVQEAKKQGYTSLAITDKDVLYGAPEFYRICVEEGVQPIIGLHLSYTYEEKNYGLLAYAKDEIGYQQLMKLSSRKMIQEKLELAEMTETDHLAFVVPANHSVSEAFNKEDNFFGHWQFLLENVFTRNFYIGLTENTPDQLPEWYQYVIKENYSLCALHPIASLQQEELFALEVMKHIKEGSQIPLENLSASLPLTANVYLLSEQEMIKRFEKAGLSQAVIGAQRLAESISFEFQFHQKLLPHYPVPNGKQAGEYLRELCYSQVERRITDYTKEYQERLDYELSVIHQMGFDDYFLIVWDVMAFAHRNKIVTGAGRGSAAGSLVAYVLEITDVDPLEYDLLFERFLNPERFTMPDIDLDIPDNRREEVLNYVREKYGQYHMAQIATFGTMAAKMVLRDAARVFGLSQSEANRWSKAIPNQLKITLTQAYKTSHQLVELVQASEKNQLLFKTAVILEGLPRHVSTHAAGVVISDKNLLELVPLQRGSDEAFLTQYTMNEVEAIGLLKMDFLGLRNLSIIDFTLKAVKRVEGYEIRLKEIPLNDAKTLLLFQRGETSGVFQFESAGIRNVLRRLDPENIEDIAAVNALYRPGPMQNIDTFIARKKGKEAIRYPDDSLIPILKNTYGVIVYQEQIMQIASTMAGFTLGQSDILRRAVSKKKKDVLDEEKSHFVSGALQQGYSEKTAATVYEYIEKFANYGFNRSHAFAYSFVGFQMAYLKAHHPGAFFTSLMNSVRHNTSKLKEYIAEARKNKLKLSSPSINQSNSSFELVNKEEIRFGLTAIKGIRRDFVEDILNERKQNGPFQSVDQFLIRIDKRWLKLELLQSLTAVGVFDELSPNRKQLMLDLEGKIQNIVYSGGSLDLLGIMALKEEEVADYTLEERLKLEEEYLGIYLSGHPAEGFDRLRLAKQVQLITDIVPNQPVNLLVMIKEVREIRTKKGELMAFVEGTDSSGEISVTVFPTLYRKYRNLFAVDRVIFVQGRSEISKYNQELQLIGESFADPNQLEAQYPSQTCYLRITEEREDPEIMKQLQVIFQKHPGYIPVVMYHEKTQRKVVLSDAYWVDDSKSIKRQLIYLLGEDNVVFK

[2] = Fig. 1e source data, inhibitor 2.5 uM, replicates 1-3
[3] = Fig. 1e source data, inhibitor 4 uM, replicates 1-3
[4] = Fig. 1e source data, inhibitor 5.75 uM, replicates 1-3
[5] = Fig. 1e source data, inhibitor 8.75 uM, replicates 1-3
[6] = Fig. 1e source data, inhibitor 12.5 uM, replicates 1-3
[7] = Fig. 1e source data, inhibitor 20 uM, replicates 1-3
[8] = Fig. 1e source data, inhibitor 30 uM, replicates 1-3
[9] = Fig. 1e source data, inhibitor 45 uM, replicates 1-3
[10] = Fig. 1e source data, inhibitor 67.5 uM, replicates 1-3
[11] = Fig. 1e source data, inhibitor 100 uM, replicates 1-3
[12] = Fig. 4b source data, PolC (Exonull), inhibitor 1 uM
[13] = Fig. 4b source data, PolC (Exonull), inhibitor 1.75 uM
[14] = Fig. 4b source data, PolC (Exonull), inhibitor 2.5 uM
[15] = Fig. 4b source data, PolC (Exonull), inhibitor 4 uM
[16] = Fig. 4b source data, PolC (Exonull), inhibitor 5.75 uM
[17] = Fig. 4b source data, PolC (Exonull), inhibitor 8.8 uM
[18] = Fig. 4b source data, PolC (Exonull), inhibitor 20 uM
[19] = IC50, Fig. 1e, inhibitor 2.5-100 μM
[20] = IC50 PolC, Fig. 4b, wild-type PolC (exonuclease-inactivated), inhibitor up to 225 μM

Row | SMILES | rate of activity (slope of fluorescence intensity change over time) [1, 2] | rate of activity (slope of fluorescence intensity change over time) [1, 3] | rate of activity (slope of fluorescence intensity change over time) [1, 4] | rate of activity (slope of fluorescence intensity change over time) [1, 5] | rate of activity (slope of fluorescence intensity change over time) [1, 6] | rate of activity (slope of fluorescence intensity change over time) [1, 7] | rate of activity (slope of fluorescence intensity change over time) [1, 8] | rate of activity (slope of fluorescence intensity change over time) [1, 9] | rate of activity (slope of fluorescence intensity change over time) [1, 10] | rate of activity (slope of fluorescence intensity change over time) [1, 11] | rate of activity (slope of fluorescence intensity change over time) [1, 12] | rate of activity (slope of fluorescence intensity change over time) [1, 13] | rate of activity (slope of fluorescence intensity change over time) [1, 14] | rate of activity (slope of fluorescence intensity change over time) [1, 15] | rate of activity (slope of fluorescence intensity change over time) [1, 16] | rate of activity (slope of fluorescence intensity change over time) [1, 17] | rate of activity (slope of fluorescence intensity change over time) [1, 18] | IC50 [1, 19] | IC50 [1, 20] | rate of activity (slope of fluorescence intensity change over time) (E. faecium DnaE; inhibitor 2.5 uM) | also measured
1 | O=c1[nH]c(NCc2ccc3c(c2)OC(F)(F)O3)nc2c(F)nn(CCO)c12 [ACX-801, 5-(((2,2-difluorobenzo[d][1,3]dioxol-5-yl)methyl)amino)-3-fluoro-1-(2-hydroxyethyl)-1,6-dihydro-7H-pyrazolo[4,3-d]pyrimidin-7-one] | 16.9 and 13.9 and 11.9 | 8.8 and 10.0 | 8.5 and 6.8 and 7.4 | 6.9 and 3.4 and 4.8 | 9.5 and 6.4 and 6.3 | 3.9 and 4.0 and 3.8 | 1.2 (2×) and 2.5 | 0.4 and -0.11 and -1.5 | -0.534 and -0.6 and -2.3 | -1.1 and -0.9 and -1.0 | 39.9 and 41.9 | 37.2 and 42.3 and 40.2 | 36.3 and 36.1 | 30.8 and 32.5 and 32.0 | 23.4 and 22.7 and 23.0 | 23.6 and 23.3 and 21.3 | 11.8 and 10.7 and 11.9 | 5.8 µM | 11.7 ± 1.1 µM | 49.5 and 44.4 and 49.3 | rate of activity (slope of fluorescence intensity change over time) ([1]; Fig. 4b source data, PolC (Exonull), inhibitor 30 uM): 6.7 and 7.0 and 4.9; rate of activity (slope of fluorescence intensity change over time) (E. faecium DnaE; inhibitor 4 uM): 51.3 and 51.4 and 45.3; rate of activity (slope of fluorescence intensity change over time) (E. faecium DnaE; inhibitor 12.5 uM): 48.4 and 47.3 and 48.0; rate of activity (slope of fluorescence intensity change over time) (E. faecium DnaE; inhibitor 20 uM): 47.8 and 51.2; rate of activity (slope of fluorescence intensity change over time) (E. faecium DnaE; inhibitor 30 uM): 50.3 and 47.9 and 46.9; rate of activity (slope of fluorescence intensity change over time) (E. faecium DnaE; inhibitor 45 uM): 47.9 and 46.1 and 47.4; rate of activity (slope of fluorescence intensity change over time) (E. faecium DnaE; inhibitor 67.5 uM): 46.5 and 39.7 and 47.4; rate of activity (slope of fluorescence intensity change over time) (E. faecium DnaE; inhibitor 100 uM): 45.5 and 39.2 and 38.1; IC50 (E. faecium DnaE): > 100 µM
2 | O=c1[nH]c(NCc2ccc(Cl)c(Cl)c2)nc2ncn(CCN3CCOCC3)c12 [IBZ, N^2-(3,4-dichlorobenzyl)-7-(2-[1-morpholinyl]ethyl)guanine] | 31.9 and 18.7 and 16.2 | 28.6 and 14.0 | 24.9 and 15.1 and 11.5 | 19.6 and 9.9 and 9.1 | 18.4 and 12.8 and 8.3 | 8.2 and 4.7 | 9.1 and 5.5 and 3.7 | 6.8 and 2.9 and 1.6 | 4.7 and 1.7 and -0.348 | -0.9 and -0.439 and 1.4 | 34.5 and 33.9 and 33.6 | 31.8 and 30.8 | 27.4 and 24.3 | 19.3 and 20.4 | 12.7 and 13.8 | 8.9 and 8.1 and 9.9 | 4.0 and 3.7 and 2.8 | 12.3 µM | 4.7 ± 0.3 µM | 49.8 and 49.1 and 50.9 | rate of activity (slope of fluorescence intensity change over time) (E. faecium DnaE; inhibitor 4 uM): 37.6 and 41.6 and 39.1; rate of activity (slope of fluorescence intensity change over time) (E. faecium DnaE; inhibitor 12.5 uM): 40.9 and 43.1 and 37.2; rate of activity (slope of fluorescence intensity change over time) (E. faecium DnaE; inhibitor 20 uM): 38.6 and 37.7 and 36.0; rate of activity (slope of fluorescence intensity change over time) (E. faecium DnaE; inhibitor 30 uM): 35.7 and 37.2 and 30.7; rate of activity (slope of fluorescence intensity change over time) (E. faecium DnaE; inhibitor 45 uM): 28.3 and 28.4 and 27.5; rate of activity (slope of fluorescence intensity change over time) (E. faecium DnaE; inhibitor 67.5 uM): 18.3 and 24.4 and 21.1; rate of activity (slope of fluorescence intensity change over time) (E. faecium DnaE; inhibitor 100 uM): 19.9 and 17.8 and 14.2; IC50 (E. faecium DnaE): 89.3 µM; inhibition towards E. faecium DnaE lower than PolC (E. faecium DnaE; in vitro, DnaE versus PolC): ~ seven-fold
